How the values were obtained:
Assay in all cases: relative viability (nuclei count vs DMSO), 5 days (fraction); higher = more cells survive
TPCA-1 + Crizotinib = compound: C1=CC(=CC=C1C2=CC(=C(S2)NC(=O)N)C(=O)N)F [TPCA-1] + C[C@@H](Oc1cc(-c2cnn(C3CCNCC3)c2)cnc1N)c1c(Cl)ccc(F)c1Cl [Crizotinib] (partner 1 µM)
Procedure, shortened: (§1)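 Lung cancer cell lines in 1536-well plates got either a single drug or a fixed anchor-drug dose together with five library-drug doses (not always all listed) in √10 steps, by pin tool, on the day after seeding. Nuclei were counted after 5 days, and relative viability is the treated-to-vehicle ratio of nuclei counts. Values are medians of duplicate plates.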

TPCA-1 + Vorinostat = compound: C1=CC(=CC=C1C2=CC(=C(S2)NC(=O)N)C(=O)N)F [TPCA-1] + O=C(CCCCCCC(=O)Nc1ccccc1)NO [Vorinostat] (partner 1 µM)
Procedure, shortened: as §1

[1] = compound: C[C@]12O[C@H](C[C@]1(O)CO)n1c3ccccc3c3c4c(c5c6ccccc6n2c5c31)CNC4=O [Lestaurtinib] + O=C(CCCCCCC(=O)Nc1ccccc1)NO [Vorinostat] (partner 1 µM)
Procedure, shortened: as §1

TPCA-1 + Decitabine = compound: C1=CC(=CC=C1C2=CC(=C(S2)NC(=O)N)C(=O)N)F [TPCA-1] + Nc1ncn([C@H]2C[C@H](O)[C@@H](CO)O2)c(=O)n1 [Decitabine] (partner 2 µM)
Procedure, shortened: as §1

Row | Cell Line | relative viability (TPCA-1 + Crizotinib; first compound 0.04 µM) | relative viability (TPCA-1 + Crizotinib; first compound 0.1265 µM) | relative viability (TPCA-1 + Crizotinib; first compound 0.4 µM) | relative viability (TPCA-1 + Crizotinib; first compound 1.265 µM) | relative viability (TPCA-1 + Crizotinib; first compound 4 µM) | relative viability (TPCA-1 + Vorinostat; first compound 0.04 µM) | relative viability (TPCA-1 + Vorinostat; first compound 0.1265 µM) | relative viability (TPCA-1 + Vorinostat; first compound 0.4 µM) | relative viability (TPCA-1 + Vorinostat; first compound 1.265 µM) | relative viability (TPCA-1 + Vorinostat; first compound 4 µM) | relative viability ([1]; first compound 0.005 µM) | relative viability ([1]; first compound 0.01581 µM) | relative viability ([1]; first compound 0.05 µM) | relative viability ([1]; first compound 0.1581 µM) | relative viability ([1]; first compound 0.5 µM) | relative viability (TPCA-1 + Decitabine; first compound 0.04 µM) | relative viability (TPCA-1 + Decitabine; first compound 0.1265 µM) | relative viability (TPCA-1 + Decitabine; first compound 0.4 µM) | relative viability (TPCA-1 + Decitabine; first compound 1.265 µM) | relative viability (TPCA-1 + Decitabine; first compound 4 µM)
1 | NCI-H1651 | 0.853 | 0.841 | 0.892 | 0.812 | 0.747 | 0.571 | 0.429 | 0.629 | 0.496 | 0.239 | 0.555 | 0.617 | 0.539 | 0.58 | 0.23 | 0.66 | 0.578 | 0.578 | 0.546 | 0.217
2 | HCC-15 | 0.833 | 0.81 | 0.831 | 0.798 | 0.563 | 0.914 | 0.758 | 0.84 | 0.782 | 0.806 | 0.88 | 0.983 | 0.701 | 0.446 | 0.205 | 0.731 | 0.546 | 0.708 | 0.625 | 0.374
3 | LCLC-103H | 1.12 | 1.03 | 0.96 | 1.03 | 1.03 | 0.839 | 0.764 | 0.818 | 0.525 | 0.363 | 0.783 | 0.83 | 0.646 | 0.5 | 0.395 | 0.716 | 0.719 | 0.772 | 0.788 | 0.811
4 | NCI-H23 | 0.582 | 0.503 | 0.515 | 0.441 | 0.341 | 0.392 | 0.579 | 0.546 | 0.526 | 0.161 | 0.602 | 0.645 | 0.549 | 0.308 | 0.126 | 0.319 | 0.277 | 0.289 | 0.317 | 0.262
